These results are taken from patent US8921385B2, “5-substituted quinazolinone derivatives and compositions comprising and methods of using the same” (Celgene Corporation, priority 2006, dated 2014).

`Cc1cccc(C(=O)NCc2cccc3nc(C)n(C4CCC(=O)NC4=O)c(=O)c23)c1` (centres unmarked) [Example 6.50, N-[3-(2,6-Dioxo-Piperidin-3-yl)-2-Methyl-4-Oxo-3,4-Dihydro-Quinazolin-5-ylmethyl]-3-Methyl-Benzamide] registered a melting point of 263 to 265 °C. Take `Cc1nc2cccc(CNC(=O)c3ccc(Cl)cc3)c2c(=O)n1C1CCC(=O)NC1=O` (centres unmarked) [Example 6.51, 4-Chloro-N-[3-(2,6-Dioxo-Piperidin-3-yl)-2-Methyl-4-Oxo-3,4-Dihydro-Quinazolin-5-ylmethyl]-Benzamide]: the melting point was in the range of 276 to 278 °C. `Cc1nc2cccc(CNC(=O)c3cccc(F)c3)c2c(=O)n1C1CCC(=O)NC1=O` (centres unmarked) [Example 6.52, N-[3-(2,6-Dioxo-Piperidin-3-yl)-2-Methyl-4-Oxo-3,4-Dihydro-Quinazolin-5-ylmethyl]-3-Fluoro-Benzamide]: the melting point lay within 240 to 242 °C.

`Cc1nc2cccc(CNC(=O)c3ccc(C(F)(F)F)cc3)c2c(=O)n1C1CCC(=O)NC1=O` (centres unmarked) [Example 6.53, N-[3-(2,6-Dioxo-Piperidin-3-yl)-2-Methyl-4-Oxo-3,4-Dihydro-Quinazolin-5-ylmethyl]-4-Trifluoromethyl-Benzamide] showed a melting point of 253 to 255 °C.

`Cc1nc2cccc(CNC(=O)c3ccc(OC(F)(F)F)cc3)c2c(=O)n1C1CCC(=O)NC1=O` (centres unmarked) [Example 6.54, N-[3-(2,6-Dioxo-Piperidin-3-yl)-2-Methyl-4-Oxo-3,4-Dihydro-Quinazolin-5-ylmethyl]-4-Trifluoromethoxy-Benzamide]: the melting point is 258 to 260 °C. Under `Cc1nc2cccc(CNC(=O)c3ccccc3)c2c(=O)n1C1CCC(=O)NC1=O` (centres unmarked) [Example 6.55, N-[3-(2,6-Dioxo-Piperidin-3-yl)-2-Methyl-4-Oxo-3,4-Dihydro-Quinazolin-5-ylmethyl]-Benzamide] stands 247 to 249 °C. As for `Cc1nc2cccc(CNC(=O)c3ccc(Cl)c(Cl)c3)c2c(=O)n1C1CCC(=O)NC1=O` (centres unmarked) [Example 6.56, 3,4-Dichloro-N-[3-(2,6-Dioxo-Piperidin-3-yl)-2-Methyl-4-Oxo-3,4-Dihydro-Quinazolin-5-ylmethyl]-Benzamide], the melting point was in the range of 271 to 273 °C. Consider `Cc1nc2cccc(CNC(=O)c3cccc(C(F)(F)F)c3)c2c(=O)n1C1CCC(=O)NC1=O` (centres unmarked) [Example 6.57, N-[3-(2,6-Dioxo-Piperidin-3-yl)-2-Methyl-4-Oxo-3,4-Dihydro-Quinazolin-5-ylmethyl]-3-Trifluoromethyl-Benzamide], for which the melting point lay within 233 to 235 °C.
